Earlier results as cited in patent US12728106B2, “Multiparticulate pharmaceutical composition of tamsulosin and solifenacin” (priority 2020, dated 2026).
Where two headings read alike, the source gives them in different places.

Solubility in water | Solubility in dimethyl sulfoxide (room temperature, dimethyl sulfoxide) | Solubility in glacial acetic acid (room temperature, glacial acetic acid) | Solubility in methanol (room temperature, methanol) | Solubility in water (room temperature) | SMILES
sparingly soluble | – | – | – | – | CCOc1ccccc1OCCN[C@H](C)Cc1ccc(OC)c(S(N)(=O)=O)c1.Cl [Tamsulosin hydrochloride, (−)-(R)-5-[2-[[2-(o-Ethoxyphenoxy)ethyl]amino]propyl]-2methoxybenzenesulfonamide, monohydrochloride]
– | freely soluble | freely soluble | freely soluble | freely soluble | O=C(O[C@H]1CN2CCC1CC2)N1CCc2ccccc2[C@@H]1c1ccccc1 [Solifenacin succinate, butanedioic acid compound with (1S)-(3R)-1-azabicyclo[2.2.2]oct-3-yl 3,4-dihydro-1-phenyl-2(1H)-iso-quinolinecarboxylate (1:1)]
